# Experiments:
# [1] = tested on: gray garden slugs; test: Anti-feeding on peptide-treated lettuce leaf; type: in vivo, Deroceras reticulatum; details: lettuce treated with 200 nmol peptide
# Protocol: The gray garden slugs utilized herein (Deroceras reticulatum) were collected in Corvallis, Oregon, USA, and maintained with carrot and lettuce in a controlled incubator (13° C., 90% RH, 14: 10=light:dark, dim light). To test for the effect of the peptides on feeding, slugs were fed a diet of lettuce leaf tissues treated with water alone or with 200 nmol of individual peptides (SEQ ID NO: 19, SEQ ID NO: 25, and SEQ ID NO: 26) dissolved in 10 μL water (FIG. 8). Ten gray garden slugs were used for each treatment and each treatment was replicated three times.
# [2] = tested on: gray garden slugs; test: Mortality after peptide injection into slugs; type: in vivo, Deroceras reticulatum; details: 100 nmol injected
# Protocol: The gray garden slugs utilized herein (Deroceras reticulatum) were collected in Corvallis, Oregon, USA, and maintained with carrot and lettuce in a controlled incubator (13° C., 90% RH, 14: 10=light:dark, dim light). To test their effects on slugs, 100 nmol of each of the peptides (SEQ ID NO: 1, SEQ ID NO: 3, SEQ ID NO: 19, SEQ ID NO: 25 and SEQ ID NO: 26) was dissolved in 5 μL of purified water (100 nmol) and injected into 10 gray garden slugs per each treatment. Under dry conditions, after 24 h the slug mortalities observed were 40% with SEQ ID NO: 1, 70% with SEQ ID NO: 3, 90% with SEQ ID NO: 19, 70% with SEQ ID NO: 25, and 70% with SEQ ID NO: 26. […] Under wet conditions, the slug mortalities observed within 24 h were 40% with SEQ ID NO: 19, 40% with SEQ ID NO: 25, and 30% with SEQ ID NO: 26.
# [3] = tested on: two slug GPCRs (receptor A and B) expressed in the Sf9 insect cell line; test: Binding assay with peptides: calcium fluorescence (FLIPR Calcium 6) in Sf9 cells expressing slug GPCRs; type: cell-based, Deroceras reticulatum; details: for binding activity / activation of the receptors: alanine-substituted or N-terminally reduced peptides of SEQ ID NO: 3, FIG. 5; for EC50: Sf9 cells expressing receptor A or receptor B, receptor not given
# Source text: The open reading frames (ORFs) of D. reticulatum GPCRs were inserted into a pIB/V5-His TOPO® TA expression vector (Thermo Fisher Scientific) to be expressed in Sf9 cells as described previously (Choi et al., Gen. Comp. Endocrinol., (2017) 246:354-62). To add a Kozak sequence (G/ANNATGG) in the translation initiation the ORFs of D. reticulatum GPCRs were amplified using specific primer sets. The sequences of two different ORFs of D. reticulatum GPCRs were confirmed after insertion into the expression vector.
# Small synthetic peptides derived from the PRXamide family members identified from the gray garden slug and insects (Table 1), were tested to determine their binding activities to two slug GPCRs (receptor A and B) expressed in the Sf9 insect cell line. All peptide ligands of SEQ ID NOs: 1-16 and 19-28, as well as the “RY” dipeptide and “PRY” tripeptide (purity >95%) were synthesized from Peptide 2.0 (Chantily, VA, USA). Sf9 cells were cultured as described previously (Choi et al., supra). About 50,000 cells per well in a 96-well plate (Corning C3603) were incubated at 28° C. overnight. At 48 h, cells were rinsed with 100 μL of fresh medium without fetal bovine serum (FBS). Then, cells were incubated in 95 μL of 1×FLIPR Calcium 6 reagent (Molecular Devices, San Jose, CA, USA) containing 2.5 mM probenecid at room temperature in the dark for 1 h. The reagent-loaded cells were transferred to the Flexstation 3 multimode microplate reader (Molecular Devices) equipped with filters (excitation: 485 nm and emission: 520 nm) and an 8-channel pipettor. Fluorescence measurements from each well on the column were taken every 5 s for 4 min. After 30 s the peptide ligand (10 μL) was added with the pipettor and fluorescent intensity was measured for up to 3 min. Then, 5 μL of 1 μM ionomycin (Thermo Fisher Scientific) was added to the cells to obtain a maximum fluorescence reading. Baseline fluorescence was determined by averaging 5 time points from each well prior to treatment with ligand and the resulting response was expressed as a percent increase in fluorescence relative to baseline value. Cells were tested only once with a ligand then discarded. Data were analyzed using Microsoft Excel as described previously, and half-maximal effective concentration (EC50) values of ligands were determined using GraphPad Prism 6 (GraphPad Software, Inc., San Diego, CA).
# The binding affinity to the two receptors of these two peptides, QPPLPRY-NH2 (SEQ ID NO: 3) and QPPVPRY-NH2 (SEQ ID NO: 4), was measured based on specific fluorescent intensity of the Sf9 cells expressing receptor A or receptor B in a 96-well plate. A strong fluorescent signal indicated strong binding activity between the peptide ligand and receptor.
# To test the effect of varying individual amino acid residues and varying the length of the peptide of SEQ ID NO: 3, different amino acid residues were replaced with alanine (A), or the overall length of the peptide was reduced by sequentially removing amino acid residues from the N-terminal end of SEQ ID NO: 3 (Table 1, SEQ ID NO: 19, SEQ ID NO: 20, SEQ ID NO: 21, SEQ ID NO: 22, SEQ ID NO: 23, SEQ ID NO: 24, SEQ ID NO: 25, SEQ ID NO: 26, SEQ ID NO: 27, SEQ ID NO: 28). Altered peptides were tested and measured for binding activity with the receptors using the same methods as described above.
# [4] = tested on: gray garden slugs; test: Body weight loss and phenotype after peptide injection into slugs; type: in vivo, Deroceras reticulatum; details: for body weight loss relative to water control: 10 nmol injected, after 72 h
# Protocol: The gray garden slugs utilized herein (Deroceras reticulatum) were collected in Corvallis, Oregon, USA, and maintained with carrot and lettuce in a controlled incubator (13° C., 90% RH, 14: 10=light:dark, dim light). To test their effects on slugs, peptides of SEQ ID NO: 3 and SEQ ID NO: 4 were dissolved in 5 μl of purified water (10 nmol) and injected into four gray garden slugs per each treatment. Over 80% of the slug body weight was lost after 72 h when either peptide was injected into the slugs, almost 2-fold higher than the water control (FIG. 3).
# [5] = dry conditions (Petri dish), after 24 h
# [6] = wet conditions (Petri dish with wet paper towel), within 24 h
Substance,"slug mortality [2, 5] [%]","slug mortality [2, 6]",binding activity / activation of the receptors [3],other results
APPLPRY [SEQ ID NO: 19],90,40%,maintained binding activity and activated the receptors,anti-feeding ([1]; within 1 h): 93.3%; anti-feeding ([1]; within 2 h): 91.3%; anti-feeding ([1]; within 6 h): 80.7%
LPRY [SEQ ID NO: 26],70,30%,retained the ability to activate the receptors,anti-feeding ([1]; within 1 h): 73.3%; anti-feeding ([1]; within 2 h): 48.0%; anti-feeding ([1]; within 6 h): 23.3%
PLPRY [SEQ ID NO: 28],–,–,retained the ability to activate the receptors,–
"PMSMLRL [SEQ ID NO: 1, synthetic peptide, source D. reticulatum]",40,–,–,–
PPLPRY [SEQ ID NO: 27],–,–,retained the ability to activate the receptors,–
QAPLPRY [SEQ ID NO: 20],–,–,maintained binding activity and activated the receptors,–
QPALPRY [SEQ ID NO: 21],–,–,maintained binding activity and activated the receptors,–
QPPAPRY [SEQ ID NO: 22],–,–,maintained binding activity and activated the receptors,–
QPPLPRA [SEQ ID NO: 25],70,40%,–,anti-feeding ([1]; within 1 h): 66.7%; anti-feeding ([1]; within 2 h): 46.7%; anti-feeding ([1]; within 6 h): 16.7%
"QPPLPRY [SEQ ID NO: 3, synthetic peptide, source D. reticulatum]",70,No mortalities were observed,–,"body weight loss relative to water control [4]: ~2 fold; phenotypic effects after injection ([4]; injected peptide, FIG. 4): excreted large volumes of milky mucus within 1 minute, exhibited body paralysis, extruding tentacles, weight loss and dehydration; EC50 [3]: 1.4 nM"
"QPPVPRY [SEQ ID NO: 4, synthetic peptide, source D. reticulatum]",–,–,–,body weight loss relative to water control [4]: ~2 fold; EC50 [3]: 12.7 nM
